Source: publication PMC3209502 (European journal of pharmacology, 2011)

Tests used:
male Sprague Dawley rats = assay: Rat forced swimming test; type: in vivo; conditions: 15 mg/kg i.p., 30 min pretreatment, vs vehicle
C57Bl/6 mice = assay: Mouse tail suspension test; type: in vivo; conditions: 15 mg/kg, 30 min before testing, vs vehicle
Sprague Dawley Rats = assay: Locomotor activity test; type: in vivo, rat; conditions: 5 mg/kg i.p., measured 0.5 h from 1 h post injection, vs vehicle

Row | Structure (SMILES) | duration of immobility in the forced swimming test (male Sprague Dawley rats) | immobility of mice in the tail suspension test (C57Bl/6 mice) | locomotor activity (horizontal activity, HACTV) (Sprague Dawley Rats)
1 | CN(C)CCCN1c2ccccc2CCc2ccccc21 [imipramine, Imipramine] | produced a reduction in immobility | significantly different compared to vehicle | 
2 | Fc1ccc(C(OCCN2CCN(CCCc3ccccc3)CC2)c2ccc(F)cc2)cc1 [GBR 12909, 1-[2-[bis(4-fluorophenyl)methoxy]ethyl]-4-[3-phenylpropyl]piperazine] |  |  | significant rise
